Experiments:
Human plasma kallikrein = target: T1, Human plasma kallikrein (Homo sapiens, UniProt P03952); experiment: Plasma Kallikrein Assay; format: biochemical; settings: purified Human plasma kallikrein 0.5 nM, substrate Acetyl-K-P-R-AFC, HEPES pH 7.4, fluorescence 405 Ex/510 Em; read-out: PKal IC50
T1 construct: yields a heavy chain (371 amino acids) and a light chain (248 amino acids); purchased Enzyme Research Laboratories
Procedure, shortened: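 Purified human plasma kallikrein (0.5 nM) with fluorogenic Acetyl-K-P-R-AFC at ≤0.2 Km in pH 7.4 HEPES with NaCl, CaCl2 and PEG 8000, after enzyme–inhibitor equilibration. Fluorescence read at 405/510 nm under linear conditions. IC50 from four-parameter fit; Ki by Cheng-Prusoff.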

human factor XIa = human factor XIa (Homo sapiens, UniProt P03951); experiment: Factor XIa Assay; format: biochemical; settings: human factor XIa 0.04 nM, 30 min pre-incubation at 25° C., substrate GPR-AFC, pH 7.4, 60 min incubation; read-out: FXIa IC50
human factor XIa, sequence (P03951 388-625 limits assumed): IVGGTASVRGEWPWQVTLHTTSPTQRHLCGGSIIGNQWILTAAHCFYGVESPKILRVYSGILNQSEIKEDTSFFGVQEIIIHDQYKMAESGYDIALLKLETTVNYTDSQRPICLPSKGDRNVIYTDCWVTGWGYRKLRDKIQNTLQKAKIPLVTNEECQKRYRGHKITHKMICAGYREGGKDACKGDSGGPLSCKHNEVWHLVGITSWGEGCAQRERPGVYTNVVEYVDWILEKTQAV
human factor XIa, sequence (P03951 19-387 partner limits assumed): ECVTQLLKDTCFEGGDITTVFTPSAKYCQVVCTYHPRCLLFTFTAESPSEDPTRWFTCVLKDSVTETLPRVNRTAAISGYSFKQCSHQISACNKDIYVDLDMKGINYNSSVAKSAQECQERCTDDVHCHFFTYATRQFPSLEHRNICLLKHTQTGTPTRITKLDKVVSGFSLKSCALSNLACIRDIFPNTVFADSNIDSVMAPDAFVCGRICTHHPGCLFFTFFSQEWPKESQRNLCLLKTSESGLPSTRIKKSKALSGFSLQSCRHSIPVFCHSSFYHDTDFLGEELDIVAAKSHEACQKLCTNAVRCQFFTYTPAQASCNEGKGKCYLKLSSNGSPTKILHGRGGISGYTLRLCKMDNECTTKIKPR

T1 sequence (P03952 391-638 limits assumed): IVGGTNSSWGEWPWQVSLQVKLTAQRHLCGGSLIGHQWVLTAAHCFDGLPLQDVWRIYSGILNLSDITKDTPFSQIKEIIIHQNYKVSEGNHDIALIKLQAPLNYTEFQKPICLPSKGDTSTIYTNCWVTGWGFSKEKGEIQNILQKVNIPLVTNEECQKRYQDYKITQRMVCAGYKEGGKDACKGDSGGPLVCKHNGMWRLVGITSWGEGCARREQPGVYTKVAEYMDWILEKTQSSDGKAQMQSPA
T1 sequence (P03952 20-390 partner limits assumed): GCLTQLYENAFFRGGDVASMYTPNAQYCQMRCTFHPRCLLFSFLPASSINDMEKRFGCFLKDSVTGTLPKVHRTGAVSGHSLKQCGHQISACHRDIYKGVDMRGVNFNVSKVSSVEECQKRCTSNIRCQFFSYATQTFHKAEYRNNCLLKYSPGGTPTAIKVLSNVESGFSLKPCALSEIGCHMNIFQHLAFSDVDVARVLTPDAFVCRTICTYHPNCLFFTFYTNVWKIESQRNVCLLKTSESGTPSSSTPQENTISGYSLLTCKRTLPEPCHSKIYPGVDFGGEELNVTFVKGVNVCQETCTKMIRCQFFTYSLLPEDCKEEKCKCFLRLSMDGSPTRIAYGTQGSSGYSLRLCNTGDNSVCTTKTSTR

| SMILES | IC50 (Human plasma kallikrein) [nM] | IC50 (human factor XIa) [nM] |
| --- | --- | --- |
| Nc1cc(C2CC(F)(F)C2)nn1CC(=O)N1CC[C@@]2(C1)OC(=O)Nc1ccc(Cl)c(F)c12 [Example 11, (R)-1′-(2-(5-Amino-3-(3,3-difluorocyclobutyl)-1H-pyrazol-1-yl)acetyl)-6-chloro-5-fluorospiro[benzo[d][1,3]oxazine-4,3′-pyrrolidin]-2(1H)-one] | 32.3 | 672 |
| Nc1cc(-c2ccc(F)cc2)nn1CC(=O)N1CC[C@@]2(C1)OC(=O)Nc1ccc(Cl)c(F)c12 [Example 1, (R)-1′-(2-(5-Amino-3-(4-fluorophenyl)-1H-pyrazol-1-yl)acetyl)-6-chloro-5-fluorospiro[benzo[d][1,3]oxazine-4,3′-pyrrolidin]-2(1H)-one 2,2,2-trifluoroacetate] | 9.9 | 513 |
| Nc1cc(-c2cccnc2)nn1CC(=O)N1CC[C@@]2(C1)OC(=O)Nc1ccc(Cl)c(F)c12 [Example 9, (R)-1′-(2-(5-Amino-3-(pyridin-3-yl)-1H-pyrazol-1-yl)acetyl)-6-chloro-5-fluorospiro[benzo[d][1,3]oxazine-4,3′-pyrrolidin]-2(1H)-one] | 12.9 | 389 |

The next lines start with the values.

| IC50 (Human plasma kallikrein) [nM] | IC50 (human factor XIa) [nM] | SMILES |
| --- | --- | --- |
| 27.2 | 791 | Nc1cc(C2C3COCC32)nn1CC(=O)N1CC[C@@]2(C1)OC(=O)Nc1ccc(Cl)c(F)c12 (stereo partly drawn) [Example 61, (4R)-1′-(2-(5-Amino-3-(3-oxabicyclo[3.1.0]hexan-6-y1)-1H-pyrazol-1-yl)acetyl)-6-chloro-5-fluorospiro[benzo[d][1,3]oxazine-4,3′-pyrrolidin]-2(1H)-one] |
| 40.6 | 100 | CC1(C)CCc2c1nn(CC(=O)N1CC[C@@]3(C1)OC(=O)Nc1ccc(Cl)c(F)c13)c2N [Example 15, (R)-1′-(2-(3-Amino-6,6-dimethyl-5,6-dihydrocyclopenta[c]pyrazo1-2(4H)-yl)acetyl)-6-chloro-5-fluorospiro[benzo[d][1,3]oxazine-4,3′-pyrrolidin]-2(1H)-one] |
| 17 | 556 | Nc1cc(-c2cccc(F)c2)nn1CC(=O)N1CC[C@@]2(C1)OC(=O)Nc1ccc(Cl)c(F)c12 [Example 64, (R)-1′-(2-(5-Amino-3-(3-fluorophenyl)-1H-pyrazol-1-yl)acetyl)-6-chloro-5-fluorospiro[benzo[d] [1,3]oxazine-4,3′-pyrrolidin]-2(1H)-one] |
| 14.3 | 739 | Nc1cc(-c2ccc(F)c(F)c2)nn1CC(=O)N1CC[C@@]2(C1)OC(=O)Nc1ccc(Cl)c(F)c12 [Example 47, (R)-1′-(2-(5-Amino-3-(3,4-difluorophenyl)-1H-pyrazol-1-yl)acetyl)-6-chloro-5-fluorospiro[benzo[d][1,3]oxazine-4,3′-pyrrolidin]-2(1H)-one] |

— patent publication US20240208994A1, “PLASMA KALLIKREIN INHIBITORS” (Merck Sharp & Dohme LLC, priority 2021, published 2024)
